This note sets out measurements from patent US20070191398A1, “Fungicidal mixtures” (priority 2004, published 2007).

For the experiment, the system named is Plasmopara viticola. The experiment in a line: persistency against peronospora of grapevines caused by Plasmopara viticola, 7-day protective application. The class given is in vivo, Plasmopara viticola on potted vines. The settings on record: individual active compound, 7-day protective application on grapevine leaves. On the procedure: The active compounds, separately or jointly, were prepared as a stock solution comprising 0.25% by weight of active compound in acetone or DMSO. 1% by weight of the emulsifier Uniperol® EL (wetting agent having emulsifying and dispersant action based on ethoxylated alkylphenols) was added to this solution, and the mixture was diluted with water to the desired concentration.
Use example—persistency against peronospora of grapevines caused by Plasmopara viticola, 7-day protective application Leaves of potted vines were sprayed to runoff point with an aqueous suspension having the concentration of active compound stated below. 7 days later, the undersides of the leaves were inoculated with an aqueous sporangia suspension of Plasmopara viticola. The grapevines were then initially placed in a water-vapor-saturated chamber at 24° C. for 48 hours and then in a greenhouse at 20-30° C. for 5 days. After this period of time, the plants were again placed in a humid chamber for 16 hours to accelerate sporangiophore eruption. The extent of the development of the disease on the undersides of the leaves was then determined visually.
The visually determined percentages of infected leaf areas were converted into efficacies in % of the untreated control:
The efficacy (E) is calculated as follows using Abbot's formula: E=(1−α/β)·100 α corresponds to the fungicidal infection of the treated plants in % and β corresponds to the fungicidal infection of the untreated (control) plants in % An efficacy of 0 means that the infection level of the treated plants corresponds to that of the untreated control plants; an efficacy of 100 means that the treated plants were not infected.
The expected efficacies of mixtures of active compounds were determined using Colby's formula (Colby, S. R. “Calculating synergistic and antagonistic responses of herbicide combinations”, Weeds, 15, 20-22, 1967) and compared with the observed efficacies.
Colby's formula: E=x+y−x·y/100
E expected efficacy, expressed in % of the untreated control, when using the mixture of the active compounds A and B at the concentrations a and b x efficacy, expressed in % of the untreated control, when using the active compound A at the concentration a y efficacy, expressed in % of the untreated control, when using the active compound B at the concentration b

Molecules are shown by their SMILES.

As to `CC1CCN(c2c(-c3c(F)cc(F)cc3F)c(Cl)nc3ncnn23)CC1` [I, 5-chloro-7-(4-methylpiperidin-1-yl)-6-(2,4,6-trifluorophenyl)-[1,2,4]tri-azolo[1,5-a]pyrimidine], the “Efficacy in % of the untreated control” value is, setting by setting: (1 ppm in the spray liquor) 0%; (5 ppm in the spray liquor) 0%; (10 ppm in the spray liquor) 6%.
`O=C(NCc1ncc(C(F)(F)F)cc1Cl)c1c(Cl)cccc1Cl` [II, 2,6-dichloro-N-(3-chloro-5-trifluoromethylpyridin-2-ylmethyl)-benzamide]: the “Efficacy in % of the untreated control” value is, setting by setting: (2.5 ppm in the spray liquor) 65%; (5 ppm in the spray liquor) 76%.
